From ChEMBL document CHEMBL4118048, “Characterization of the Polymyxin D Synthetase Biosynthetic Cluster and Product Profile of Paenibacillus polymyxa ATCC 10401” (2017)
Values after ≈ are worked out from the molar mass of the structure shown. Active and inactive are the calls of the source. The calls are words filed in the database; no cut-off is given here. Where a SMILES comes first, the peptide text is derived from it. Bridges are numbered along the chain shown (N, C = ends). [ ]: non-standard residue; d: D form. The star is where a group is joined. Heptanoyl(6-Me) = CC(C)CCCCC(=O)*; X1 = CC[C@H](C)CCCCC(=O)*; Dab = NCC[C@H](N)C(=O)O

What was measured:
[1] = system: Klebsiella pneumoniae; experiment: Antibacterial activity against Klebsiella pneumoniae isolate FADDI-KP032 after 18 hrs by broth microdilution method; format: functional; details: isolate FADDI-KP032, 18 h
[2] = system: Acinetobacter baumannii; experiment: Antibacterial activity against Acinetobacter baumannii ATCC 19606 after 18 hrs by broth microdilution method; format: functional; details: ATCC 19606 = CIP 70.34 = JCM 6841, 18 h
[3] = system: Pseudomonas aeruginosa; experiment: Antibacterial activity against Pseudomonas aeruginosa ATCC 27853 infected in mouse assessed as reduction in bacterial count in blood at 4 mg/kg, ip measured after 4 hrs; format: functional
[4] = system: Pseudomonas aeruginosa; experiment: Antibacterial activity against Pseudomonas aeruginosa ATCC 27853 after 18 hrs by broth microdilution method; format: functional; details: ATCC 27853, 18 h
[5] = system: Acinetobacter baumannii; experiment: Antibacterial activity against Acinetobacter baumannii ATCC 19606 infected in mouse assessed as reduction in bacterial count in blood at 4 mg/kg, ip measured after 4 hrs; format: functional, organism-based; details: ATCC 19606 = CIP 70.34 = JCM 6841
[6] = system: Klebsiella pneumoniae; experiment: Antibacterial activity against Klebsiella pneumoniae isolate FADDI-KP032 infected in mouse assessed as reduction in bacterial count in blood at 4 mg/kg, ip measured after 4 hrs; format: functional, organism-based
[7] = system: Klebsiella pneumoniae; experiment: Antibacterial activity against Klebsiella pneumoniae BM1 after 18 hrs by broth microdilution method; format: functional; details: BM1, 18 h
[8] = system: Pseudomonas aeruginosa; experiment: Antibacterial activity against Pseudomonas aeruginosa isolate FADDI-PA022 after 18 hrs by broth microdilution method; format: functional; details: isolate FADDI-PA022, 18 h
[9] = system: Acinetobacter baumannii; experiment: Antibacterial activity against Acinetobacter baumannii isolate FADDI-AB030 after 18 hrs by broth microdilution method; format: functional; details: isolate FADDI-AB030, 18 h
[10] = system: Acinetobacter baumannii; experiment: Antibacterial activity against Acinetobacter baumannii ATCC 17978 after 18 hrs by broth microdilution method; format: functional; details: ATCC 17978, 18 h
[11] = system: Klebsiella pneumoniae; experiment: Antibacterial activity against Klebsiella pneumoniae isolate FADDI-KP065 after 18 hrs by broth microdilution method; format: functional; details: isolate FADDI-KP065, 18 h
[12] = system: Acinetobacter baumannii; experiment: Antibacterial activity against Acinetobacter baumannii isolate FADDI-AB034 after 18 hrs by broth microdilution method; format: functional; details: isolate FADDI-AB034, 18 h
[13] = system: Escherichia coli; experiment: Antibacterial activity against Escherichia coli isolate FADDI-EC003 after 18 hrs by broth microdilution method; format: functional; details: isolate FADDI-EC003, 18 h
[14] = system: Escherichia coli; experiment: Antibacterial activity against Escherichia coli isolate FADDI-EC001 after 18 hrs by broth microdilution method; format: functional; details: isolate FADDI-EC001, 18 h
[15] = system: Klebsiella pneumoniae; experiment: Antibacterial activity against Klebsiella pneumoniae ATCC 13883 after 18 hrs by broth microdilution method; format: functional; details: ATCC 13883, 18 h
[16] = system: Pseudomonas aeruginosa; experiment: Antibacterial activity against Pseudomonas aeruginosa isolate FADDI-PA025 after 18 hrs by broth microdilution method; format: functional; details: isolate FADDI-PA025, 18 h
[17] = system: Pseudomonas aeruginosa; experiment: Antibacterial activity against Pseudomonas aeruginosa isolate FADDI-PA001 after 18 hrs by broth microdilution method; format: functional; details: isolate FADDI-PA001, 18 h
[18] = system: Pseudomonas aeruginosa; experiment: Antibacterial activity against Pseudomonas aeruginosa isolate FADDI-PA038 after 18 hrs by broth microdilution method; format: functional; details: isolate FADDI-PA038, 18 h
[19] = system: Klebsiella pneumoniae; experiment: Antibacterial activity against Klebsiella pneumoniae ATCC 700721 after 18 hrs by broth microdilution method; format: functional; details: ATCC 700721, 18 h
[20] = system: Escherichia coli; experiment: Antibacterial activity against Escherichia coli isolate FADDI-EC006 after 18 hrs by broth microdilution method; format: functional; details: isolate FADDI-EC006, 18 h
[21] = system: Klebsiella pneumoniae; experiment: Antibacterial activity against Klebsiella pneumoniae isolate FADDI-KP022 after 18 hrs by broth microdilution method; format: functional; details: isolate FADDI-KP022, 18 h

| SMILES | MIC [1] [mg/L] | MIC [2] [mg/L] | log(activity) [3] | MIC [4] [mg/L] | Activity [5] | Activity [6] | MIC [7] [mg/L] | MIC [8] [mg/L] | MIC [9] [mg/L] | MIC [10] [mg/L] | MIC [11] [mg/L] | Activity [3] | MIC [12] [mg/L] | MIC [13] [mg/L] | MIC [14] [mg/L] | MIC [15] [mg/L] | MIC [16] [mg/L] | MIC [17] [mg/L] | MIC [18] [mg/L] | MIC [19] [mg/L] | other results |
| --- | --- | --- | --- | --- | --- | --- | --- | --- | --- | --- | --- | --- | --- | --- | --- | --- | --- | --- | --- | --- | --- |
| CC[C@H](C)CCCCC(=O)N[C@@H](CCN)C(=O)N[C@H](C(=O)N[C@@H](CCN)C(=O)N[C@H]1CCNC(=O)[C@H]([C@@H](C)O)NC(=O)[C@H](CCN)NC(=O)[C@H](CCN)NC(=O)[C@H](CC(C)C)NC(=O)[C@@H](Cc2ccccc2)NC(=O)[C@H](CCN)NC1=O)[C@@H](C)O (X1-[Dab]T[Dab][Dab][Dab][dF]L[Dab][Dab]T; lactam 4-C) | 0.5 (≈ 0.415 µM) | 0.5 (≈ 0.415 µM) | -2.55 | 0.5 (≈ 0.415 µM) | Active | Active |  |  |  |  |  |  |  |  |  |  |  |  |  |  |  |
| CC[C@H](C)CCCCC(=O)N[C@@H](CCN)C(=O)N[C@H](C(=O)N[C@H](CO)C(=O)N[C@H]1CCNC(=O)[C@H]([C@@H](C)O)NC(=O)[C@H](CCN)NC(=O)[C@H](CCN)NC(=O)[C@H]([C@@H](C)O)NC(=O)[C@@H](CC(C)C)NC(=O)[C@H](CCN)NC1=O)[C@@H](C)O (X1-[Dab]T[dS][Dab][Dab][dL]T[Dab][Dab]T; lactam 4-C) | 8 to 32 (≈ 6.99 to 28 µM) | 8 to 32 (≈ 6.99 to 28 µM) |  | 8 to 32 (≈ 6.99 to 28 µM) | Active | Active | 8 to 32 (≈ 6.99 to 28 µM) | 8 to 32 (≈ 6.99 to 28 µM) | 8 to 32 (≈ 6.99 to 28 µM) | 8 to 32 (≈ 6.99 to 28 µM) | 8 to 32 (≈ 6.99 to 28 µM) | inactive | 8 to 32 (≈ 6.99 to 28 µM) | 8 to 32 (≈ 6.99 to 28 µM) | 8 to 32 (≈ 6.99 to 28 µM) | 8 to 32 (≈ 6.99 to 28 µM) | 8 to 32 (≈ 6.99 to 28 µM) | 8 to 32 (≈ 6.99 to 28 µM) | 8 to 32 (≈ 6.99 to 28 µM) | 8 to 32 (≈ 6.99 to 28 µM) | MIC [20]: 8 to 32 mg/L (≈ 6.99 to 28 µM); MIC [21]: 8 to 32 mg/L (≈ 6.99 to 28 µM) |
| CC(C)CCCCC(=O)N[C@@H](CCN)C(=O)N[C@H](C(=O)N[C@H](CO)C(=O)N[C@H]1CCNC(=O)[C@H]([C@@H](C)O)NC(=O)[C@H](CCN)NC(=O)[C@H](CCN)NC(=O)[C@H]([C@@H](C)O)NC(=O)[C@@H](CC(C)C)NC(=O)[C@H](CCN)NC1=O)[C@@H](C)O ({Heptanoyl(6-Me)}-[Dab]T[dS][Dab][Dab][dL]T[Dab][Dab]T; lactam 4-C) | 8 to 32 (≈ 7.08 to 28.3 µM) | 8 to 32 (≈ 7.08 to 28.3 µM) |  | 8 to 32 (≈ 7.08 to 28.3 µM) | Active | Active | 8 to 32 (≈ 7.08 to 28.3 µM) | 8 to 32 (≈ 7.08 to 28.3 µM) | 8 to 32 (≈ 7.08 to 28.3 µM) | 8 to 32 (≈ 7.08 to 28.3 µM) | 8 to 32 (≈ 7.08 to 28.3 µM) | inactive | 8 to 32 (≈ 7.08 to 28.3 µM) | 8 to 32 (≈ 7.08 to 28.3 µM) | 8 to 32 (≈ 7.08 to 28.3 µM) | 8 to 32 (≈ 7.08 to 28.3 µM) | 8 to 32 (≈ 7.08 to 28.3 µM) | 8 to 32 (≈ 7.08 to 28.3 µM) | 8 to 32 (≈ 7.08 to 28.3 µM) | 8 to 32 (≈ 7.08 to 28.3 µM) | MIC [20]: 8 to 32 mg/L (≈ 7.08 to 28.3 µM); MIC [21]: 8 to 32 mg/L (≈ 7.08 to 28.3 µM) |
| CC(C)CCCCC(=O)N[C@@H](CCN)C(=O)N[C@H](C(=O)N[C@@H](CCN)C(=O)N[C@H]1CCNC(=O)[C@H]([C@@H](C)O)NC(=O)[C@H](CCN)NC(=O)[C@H](CCN)NC(=O)[C@H](CC(C)C)NC(=O)[C@@H](Cc2ccccc2)NC(=O)[C@H](CCN)NC1=O)[C@@H](C)O [POLYMYXIN B2] ({Heptanoyl(6-Me)}-[Dab]T[Dab][Dab][Dab][dF]L[Dab][Dab]T; lactam 4-C) | 0.5 (≈ 0.42 µM) | 0.5 (≈ 0.42 µM) | -2.55 | 0.5 (≈ 0.42 µM) | Active | Active |  |  |  |  |  |  |  |  |  |  |  |  |  |  |  |
